Data: ChEMBL document CHEMBL3525981, “Metabolism and disposition of 14C-labeled peliglitazar in humans” (Drug Metab Dispos, 2011)

Test system: Homo sapiens
Test: Drug metabolism in human assessed as retention time of parent compound at 10 mg, po by LC-MS and LC-MS/MS analysis
Format: ADME, organism-based
Conditions: in vivo

| SMILES | Retention_time [min] |
| --- | --- |
| COc1ccc(OC(=O)N(CC(=O)O)[14C@@H](C)c2ccc(O[14CH2]Cc3nc(-c4ccccc4)oc3C)cc2)cc1 | 65.5 |

Test system: Homo sapiens
Test: Drug level in human assessed as retention time treated with 10 mg, po of [14C]peliglitazar by LC-MS and LC-MS/MS analysis
Format: ADME, organism-based
Conditions: not given

| SMILES | Retention_time [min] |
| --- | --- |
| Cc1oc(-c2ccccc2)nc1CC(=O)O | 18.5 |
| COc1ccc(OC(=O)N(CC(=O)O)[C@@H](C)c2ccc(O)cc2)cc1 | 21 |
| COc1ccc(OC(=O)N(CC(=O)O)[C@@H](C)c2ccc(OCCc3nc(-c4ccccc4)oc3CO)cc2)cc1 | 39.5 |
| COc1ccc(OC(=O)N(CC(=O)O)[C@@H](C)c2ccc(OCCc3nc(-c4ccc(O)cc4)oc3C)cc2)cc1 | 42.3 |
| COc1ccc(OC(=O)N(CC(=O)O)[C@@H](C)c2ccc(OCC(O)c3nc(-c4ccccc4)oc3C)cc2)cc1 (stereo not given in full) | 46.8 |
| C[C@@H](c1ccc(OCCc2nc(-c3ccccc3)oc2CO)cc1)N(CC(=O)O)C(=O)Oc1ccc(O)cc1 | 27.6 |
| Cc1oc(-c2ccccc2)nc1C(O)COc1ccc([C@H](C)N(CC(=O)O)C(=O)Oc2ccc(O)cc2)cc1 (stereo not given in full) | 32.1 |
| Cc1oc(-c2ccccc2)nc1CCOc1ccc([C@H](C)N(CC(=O)O[C@@H]2O[C@H](C(=O)O)[C@@H](O)[C@H](O)[C@H]2O)C(=O)Oc2ccc(O)cc2)cc1 | 32.2 |
| Cc1oc(-c2ccccc2)nc1CCOc1ccc([C@H](C)N(CC(=O)O)C(=O)Oc2ccc(O)cc2)cc1 | 48.4 |
